Source: ChEMBL document CHEMBL1130522, “Orevactaene,1 a novel binding inhibitor of HIV-1 rev protein to Rev response element (RRE) from Epicoccum nigrum WC47880” (Bioorg Med Chem Lett, 1997)

Tests used:
[1] = Inhibitory activity towards HIV-I regulatory protein Rev and its viral RNA-binding site, Rev response element (RRE) binding
M109 = assay: The compound was tested for its cytotoxicity on the murine tumor cell line M109; type: functional, cell-based; details: Mus musculus

CCC(C)CC(C)/C=C(/C=C(C)/C=C/C=C/C=C/C=C/C=C/c1cc2c(c(=O)o1)[C@H](O)[C@@H](O)[C@H](C(O)C(O)CO)O2)C(=O)O (some centres not stated)
IC50 [1]: 3.6 µM | IC50 (M109): 82 µM
